From patent publication US20030211589A1, “Short peptides from the b4 and b5 regions kinases which selectively modulate protein activity” (priority 2002, published 2003)
The star is where a group is joined. Stearoyl = CCCCCCCCCCCCCCCCCC(=O)*

How the values were obtained:
[1] = test system: HNK-1-positive neural crest cells from neural primordia explants; assay: Emigration of neural crest cells from neural primordia explants (HNK-1 immunostaining); assay type: cell-based, quail; settings: 5 μM peptide, 24 hours, serum-free medium, compared to control; FIG. 5
Text: The procedure for explants of neural primordia is described in greater detail in Sela-Donenfeld and Kalcheim (Development, 1999, in press), the teaching of which are incorporated herein by reference.
The trunk region of 16 somite-old quail embryos was separately sectioned at the level of the segmental plate plus the last 2 epithelial somite pairs. Neural primordia consisting of the neural tube and premigratory neural crest cells were isolated from adjacent tissues with 25% pancreatin in PBS, transferred to PBS supplemented with 5% newborn calf serum to stop enzymatic activity and washed in serum-free culture medium prior to explantation. The neural primordia were then explanted onto multi-well chamber slides that were pre-coated with fibronectin (50 μg/ml) for 1 hour. The neural primordia were cultured in 50 μl serum-free SFRI medium (Berganton, France) in the absence or presence of B4-5 peptide—K099B901, in a final concentration of 5 μM and incubated in a humid chamber for 24 hours. At the end of the incubation, the primordia were gently washed with PBS and fixed with Bouin's fluid, washed 3 times with PBS and immunostained with 50 μl of monoclonal antibodies against HNK-1 for 1 h at room temperature. Excess HNK-1 antibodies were washed 3 times with PBS. The samples were further incubated with 50 μl of a secondary fluorescent antibody, GAM-FITC for 1 h at room temperature. […]

[2] = test system: fracture site on a rabbit ulna; assay: Rabbit ulnar osteotomy model of bone remodeling (histology); assay type: in vivo, New Zealand White rabbits; settings: peptide mixture 0.3 cm^3 applied locally to fractured area, 4 weeks, vs untreated osteotomy; FIG. 6
Experimental: The rabbit ulnar osteotomy models described by Bouxsein et al., at the 45th Annual Meeting, Orthopedic Research Society, Anaheim, Calif. (1999), were employed to assess the ability of the B4-5 peptide K099B901 (ALK4-derived peptide) to accelerate bone remodeling.
Bilateral mid-ulnar osteotomies were made in the front limbs of male New Zealand White rabbits using an oscillating saw. The preparation of the peptide was as follows: 40 mg of peptide were dissolved in 200 μl of DMSO (Sigma) and 800 μl of double distilled water. The solution was mixed with 100 mg of methyl cellulose (Sigma) and 100 mg of carboxymethyl cellulose (Serva).
The K099B901 peptide mixture (0.3 cm^3) was locally applied to the fractured area. An untreated osteotomy served as a control. Radiographs of the ulna were taking weekly for 4 weeks. The rabbits were then sacrificed and the fractured areas were taken for bone histology. The bone tissue was fixated in 4% formaldehide and then soaked in 10% formic acid for decalcification. The decalcified tissue was imbedded in paraffin wax, serially sectioned at 5μ and stained with indigo-carmine.

[3] = test system: Human Fetal lung fibroblasts (HFL-1); assay: HFL-1 fibroblast cell proliferation (methylene blue staining); assay type: cell-based; settings: peptide 0-10 μM, 48 hours, vs control without peptide; FIG. 4
Experimental: Human Fetal lung fibroblasts (HFL-1) were obtained from the American Type Culture Collection (Manassas, Va.).
Culture medium was prepared from F-12K (Gibco), penicillin/streptomycin/glutamine (penicillin—100U/ml; streptomycin—100U/ml; glutamine—2 mM), 0.5% fetal calf serum and […] ascorbic acid. A suspension of HFL-1 cells at 2.22×10^5 cell/ml was prepared in the above described culture medium.
A series of B4-5 peptide stock solution was prepared by diluting a […] solution of the B4-5 peptide in 100% DMSO, with phosphate buffered saline (PBS) containing 0.1% BSA. The concentration of B4-5 peptide in each stock solution was adjusted to […] the desired concentration of the B4-5 peptide in the assay mixture. Twenty μl of peptide stock solution were placed at the bottom of each well in a 96-well flat bottom tissue culture plate, six replications for each concentration. BSA solution containing 1% DMSO with no added peptide served as a control. 180 μl of the HFL-1 cell suspension were added to each well (40,000 cells per well). The cells were incubated with the peptide (final concentrations of 0-10μM), for 48 hours at 37° C. in a 5% CO2 humidified incubator. At the end of the incubation the cells were fixed with buffered formaline (200 μl/well) for 1 h at room temperature. […] The O.D. was read at 595 nm to determine the number of cells per well. […]

K099B901: B4-5 peptide K099B901 (ALK4-derived peptide), SEQ ID NO. 30, FIG. 3 (Stearoyl-GDNKDNGTWT-NH2; SMILES CCCCCCCCCCCCCCCCCC(=O)NCC(=O)N[C@@H](CC(=O)O)C(=O)N[C@@H](CC(N)=O)C(=O)N[C@@H](CCCCN)C(=O)N[C@@H](CC(=O)O)C(=O)N[C@@H](CC(N)=O)C(=O)NCC(=O)N[C@H](C(=O)N[C@@H](Cc1c[nH]c2ccccc12)C(=O)N[C@H](C(N)=O)[C@@H](C)O)[C@@H](C)O)
outgrowth of HNK-1-positive neural crest cells from the explant [1]: remarkable outgrowth of HNK-1—positive neural crest cells from the explant | tissue formed at the fracture site (bone histology) [2]: a bone like bone-tissue was formed leading to a genuine regeneration | stimulation of cell proliferation of the HFL-1 cells [3]: exceeding 2 ×
